Reference: PubChem BioAssay (NCI)
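These data come from cells grown in 96-well plates and exposed to compound for 48 hours at five concentrations. Definition used: TGI = concentration required for complete inhibition of growth.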

Columns and labels:
Assay in all cases: NCI tumour cell line growth inhibition, 48 h
786-0 renal = test system: 786-0 renal
A498 renal = test system: A498 renal
A549 NSCLC = test system: A549 NSCLC
ACHN renal = test system: ACHN renal
BT-549 breast = test system: BT-549 breast
CAKI-1 renal = test system: CAKI-1 renal
CCRF-CEM leukemia = test system: CCRF-CEM leukemia
COLO 205 colon = test system: COLO 205 colon
DU-145 prostate = test system: DU-145 prostate
EKVX NSCLC = test system: EKVX NSCLC
HCC-2998 colon = test system: HCC-2998 colon
HCT-116 colon = test system: HCT-116 colon
HCT-15 colon = test system: HCT-15 colon
HL-60(TB) leukemia = test system: HL-60(TB) leukemia
HOP-62 NSCLC = test system: HOP-62 NSCLC
HOP-92 NSCLC = test system: HOP-92 NSCLC
HS 578T breast = test system: HS 578T breast
HT29 colon = test system: HT29 colon
IGROV1 ovarian = test system: IGROV1 ovarian
K-562 leukemia = test system: K-562 leukemia
KM12 colon = test system: KM12 colon
LOX IMVI melanoma = test system: LOX IMVI melanoma
M14 melanoma = test system: M14 melanoma
MALME-3M melanoma = test system: MALME-3M melanoma
MCF7 breast = test system: MCF7 breast
MDA-MB-231 breast = test system: MDA-MB-231 breast
MDA-MB-435 = test system: MDA-MB-435
MDA-N = test system: MDA-N
MOLT-4 leukemia = test system: MOLT-4 leukemia
NCI-H226 lung = test system: NCI-H226 lung
NCI-H23 lung = test system: NCI-H23 lung
NCI-H460 lung = test system: NCI-H460 lung
NCI-H522 lung = test system: NCI-H522 lung
NCI/ADR-RES ovarian = test system: NCI/ADR-RES ovarian
OVCAR-3 ovarian = test system: OVCAR-3 ovarian
OVCAR-4 ovarian = test system: OVCAR-4 ovarian
OVCAR-5 ovarian = test system: OVCAR-5 ovarian
OVCAR-8 ovarian = test system: OVCAR-8 ovarian
PC-3 prostate = test system: PC-3 prostate
RPMI-8226 leukemia = test system: RPMI-8226 leukemia
RXF 393 renal = test system: RXF 393 renal
SF-268 CNS = test system: SF-268 CNS
SF-295 CNS = test system: SF-295 CNS
SF-539 CNS = test system: SF-539 CNS
SK-MEL-2 melanoma = test system: SK-MEL-2 melanoma
SK-MEL-28 melanoma = test system: SK-MEL-28 melanoma
SK-MEL-5 melanoma = test system: SK-MEL-5 melanoma
SK-OV-3 ovarian = test system: SK-OV-3 ovarian
SN12C renal = test system: SN12C renal
SNB-19 CNS = test system: SNB-19 CNS
SNB-75 CNS = test system: SNB-75 CNS
SR leukemia = test system: SR leukemia
SW-620 colon = test system: SW-620 colon
T-47D breast = test system: T-47D breast
TK-10 renal = test system: TK-10 renal
U251 CNS = test system: U251 CNS
UACC-257 melanoma = test system: UACC-257 melanoma
UACC-62 melanoma = test system: UACC-62 melanoma
UO-31 renal = test system: UO-31 renal

Measured: TGI

CCOC(=O)NC(Nc1ccc(F)c(F)c1)(C(=O)OCC)C(F)(F)F (stereo not drawn)
> 86.5 µM: SK-MEL-2 melanoma
> 100 µM: all other assays above

Cc1ccc(-c2cn3c(nc4ccccc43)c(-c3ccccc3)n2)cc1
58.3 µM: SK-MEL-2 melanoma
> 72.5 µM: UACC-62 melanoma
56.4 µM: HOP-92 NSCLC
> 76.5 µM: TK-10 renal
48.7 µM: SNB-19 CNS
> 73.9 µM: UO-31 renal
> 96.2 µM: SF-268 CNS
> 47.7 µM: SNB-75 CNS
> 61.3 µM: RXF 393 renal
> 77.2 µM: HS 578T breast
49.2 µM: 786-0 renal
> 67.1 µM: SF-295 CNS
> 86.5 µM: A498 renal
43.7 µM: HOP-62 NSCLC
> 91.7 µM: T-47D breast
47.9 µM: SK-OV-3 ovarian
80.8 µM: NCI-H23 lung
> 66.6 µM: U251 CNS
> 77 µM: BT-549 breast
> 100 µM: all other assays above
